Experimental data: publication PMC7911516, “Investigation of the Factors Responsible for the Poor Oral Bioavailability of Acacetin in Rats: Physicochemical and Biopharmaceutical Aspects” (Pharmaceutics, 2021)

Test: Parallel artificial membrane permeability assay (PAMPA)
Assay type: in vitro ADME
Conditions: GIT PAMPA Double Sink
Procedure: Simulated intestinal fluid (SIF) was prepared by dissolving 3 mM sodium taurocholate and 0.1% (w/v) pancreatin in phosphate buffer (final pH = 7.0). The solubility of acacetin was measured by adding excessive amounts of acacetin into glass vials containing 1.5 mL of water, pH 7.4 phosphate buffer, SGF, and SIF. […] The samples were centrifuged at 16,000× g for 5 min, and the supernatant was passed through a 0.20-μm syringe filter to remove excess acacetin. Further, the concentration of acacetin in the filtrate was determined using the LC-MS/MS method. […] Finally, the acacetin concentrations in the octanol and water layers were determined using the LC-MS/MS method. […] The PAMPA was conducted using a commercially available PAMPA kit (GIT PAMPA Double Sink; pION Inc., Massachusetts, MA, USA) according to the manufacturer's protocol. The permeability was calculated using pION PAMPA Explorer ver. 3.8 software (pION Inc., Massachusetts, MA, USA).

Papp: 0.411 ×10⁻⁶ cm/s
Structure (SMILES): CNC(=C[N+](=O)[O-])NCCSCc1ccc(CN(C)C)o1 [ranitidine, reference compound]
